Source: patent US20250325467A1, “COMPOSITIONS FOR PREVENTING OR TREATING SKIN AGING” (ESTETRA SRL, priority 2021, published 2025)

Assays:
[1] = Tissue distribution (QWBA) of [^14C]-estetrol after a single oral dose in non-pigmented rats; format: in vivo; details: single oral 15 mg/kg, 3 hour (Rat 08F)
[2] = as above; format: in vivo, rat; details: for Concentration of radioactivity, Skin: Non-pigmented / Tissue:Blood ratio, Skin: Non-pigmented: non-pigmented rats, single oral 15 mg/kg
Procedure: Times for analysis were: 0.5, 1, 2, 5, 8, 24 and 48 hours
Distribution of radioactivity in tissues was determined and quantified using the Fuji FLA-5100 fluorescent image analyser and associated Tina and SeeScan software. Tissue concentrations of radioactivity were determined using calibrated autoradiographic microscales produced by GE Healthcare. A standard curve was produced using the microscales from which tissue concentrations of radioactivity were determined (nCi/g). These values were then converted into pg equivalents/g using the specific activity of the dose formulation.
Radioactivity concentrations are also reported as […] equivalents/g.

[3] = Tissue distribution (QWBA) of [^14C]-estetrol after a single oral dose in partially pigmented rats; details: for Concentration of radioactivity, Skin: Non-pigmented / Concentration of radioactivity, Skin: Pigmented / Tissue:Blood ratio, Skin: Non-pigmented / Tissue:Blood ratio, Skin: Pigmented / Total amount of radioactivity, Skin (non-pigmented) / Total amount of radioactivity, Skin (pigmented): single oral 15 mg/kg
Procedure: Tissue distribution was determined in female rats (partially pigmented and non-pigmented) using [^14C]-estetrol.
A group of six female Lister Hooded rats each received a single oral dose of [^14C]-estetrol. At each selected time (see below) one animal was killed (by overdose of CO2) followed by immediate snap freezing in hexane/solid CO2. The carcasses were retained for examination of the tissue distribution of radioactivity using the technique of quantitative whole body autoradiography (QWBA).
Times for analysis were: (0.5, 8, and 24 hours, 7, 14 and 35 days)
Frozen carcasses were subjected to whole-body autoradiography.
Where concentrations are reported, radioactivity was assumed to be associated with [^14C]-estetrol or any metabolic products derived from [^14C]-estetrol. The specific activities of the dosed test compounds were used for the calculation of concentrations in all cases. Recoveries of radioactivity are reported as percentage of administered radioactivity (% dose). Radioactivity concentrations are also reported as pg equivalents/g.

[4] = partially pigmented rats, 0.5 hours
[5] = partially pigmented rats, 8 hours
[6] = partially pigmented rats, 24 hours
[7] = partially pigmented rats, 7 days
[8] = partially pigmented rats, 14 days
[9] = partially pigmented rats, 35 days

[^14C]-estetrol
Tissue:Blood ratio, Skin: Non-pigmented [1]: 0.99 | concentration of radioactivity, liver (greatest concentration) ([2]; female non-pigmented rats, single oral dose, 0.5 hours): 12.5 microgram equivalents/gram | Concentration of radioactivity, Skin: Non-pigmented ([2]; 0.5 hours): 2.59 microgram equivalents/gram | Tissue:Blood ratio, Skin: Non-pigmented ([2]; 0.5 hours): 1.05 | Concentration of radioactivity, Skin: Non-pigmented ([2]; 1 hour): 0.771 microgram equivalents/gram | Concentration of radioactivity, Skin: Non-pigmented ([2]; 2 hours): 0.465 microgram equivalents/gram | Tissue:Blood ratio, Skin: Non-pigmented ([2]; 2 hours): 1.72 | Concentration of radioactivity, Skin: Non-pigmented ([2]; 5 hours): 0.189 microgram equivalents/gram | Tissue:Blood ratio, Skin: Non-pigmented ([2]; 5 hours): 1.66 | Concentration of radioactivity, Skin: Non-pigmented ([2]; 8 hours): 0.361 microgram equivalents/gram | Tissue:Blood ratio, Skin: Non-pigmented ([2]; 8 hours): 1.77 | Concentration of radioactivity, Skin: Non-pigmented ([2]; 24 hours): BLQ | Concentration of radioactivity, Skin: Non-pigmented ([2]; 48 hours): BLQ | concentration of radioactivity, liver (greatest concentration) ([3]; female partially pigmented rats, single oral dose, 0.5 hours): 13.7 μg equivalents/g | Concentration of radioactivity, Skin: Non-pigmented [3, 4]: 1.89 microgram equivalents/gram | Concentration of radioactivity, Skin: Pigmented [3, 4]: 2.85 microgram equivalents/gram | Tissue:Blood ratio, Skin: Non-pigmented [3, 4]: 0.71 | Tissue:Blood ratio, Skin: Pigmented [3, 4]: 1.07 | Total amount of radioactivity, Skin (non-pigmented) [3, 4]: 1.136 % dose administered/tissue | Total amount of radioactivity, Skin (pigmented) [3, 4]: 1.714 % dose administered/tissue | Concentration of radioactivity, Skin: Non-pigmented [3, 5]: 0.090 microgram equivalents/gram | Concentration of radioactivity, Skin: Pigmented [3, 5]: 0.161 microgram equivalents/gram | Tissue:Blood ratio, Skin: Non-pigmented [3, 5]: 0.56 | Tissue:Blood ratio, Skin: Pigmented [3, 5]: 1.01 | Total amount of radioactivity, Skin (non-pigmented) [3, 5]: 0.059 % dose administered/tissue | Total amount of radioactivity, Skin (pigmented) [3, 5]: 0.099 % dose administered/tissue | Concentration of radioactivity, Skin: Non-pigmented [3, 6]: BLQ | Concentration of radioactivity, Skin: Pigmented [3, 6]: 0.113 microgram equivalents/gram | Total amount of radioactivity, Skin (non-pigmented) [3, 6]: <0.041 % dose administered/tissue | Total amount of radioactivity, Skin (pigmented) [3, 6]: 0.061 % dose administered/tissue | Concentration of radioactivity, Skin: Non-pigmented [3, 7]: BLQ | Concentration of radioactivity, Skin: Pigmented [3, 7]: BLQ | Total amount of radioactivity, Skin (non-pigmented) [3, 7]: <0.043 % dose administered/tissue | Total amount of radioactivity, Skin (pigmented) [3, 7]: <0.043 % dose administered/tissue | Concentration of radioactivity, Skin: Non-pigmented [3, 8]: BLQ | Concentration of radioactivity, Skin: Pigmented [3, 8]: BLQ | Total amount of radioactivity, Skin (non-pigmented) [3, 8]: <0.038 % dose administered/tissue | Total amount of radioactivity, Skin (pigmented) [3, 8]: <0.038 % dose administered/tissue | Concentration of radioactivity, Skin: Non-pigmented [3, 9]: BLQ | Concentration of radioactivity, Skin: Pigmented [3, 9]: BLQ | Total amount of radioactivity, Skin (non-pigmented) [3, 9]: <0.041 % dose administered/tissue | Total amount of radioactivity, Skin (pigmented) [3, 9]: <0.041 % dose administered/tissue | concentration of radioactivity, liver ([3]; partially pigmented rats, single oral dose, 7 days after dosing): 0.410 μg equivalents/g | concentration of radioactivity, majority of tissues (BLQ) ([3]; partially pigmented rats, single oral dose, by 24 hours): < 0.076 μg equivalents/g | concentration of radioactivity, all analyzed tissues except liver, including uveal tract and pigmented skin ([3]; partially pigmented rats, single oral dose, by 7 days): at or below the limit of quantification
